Holding throughout (type): physicochemical
Data set [1] can be described thus: Absorption spectrum in ethyl acetate solution (spectrophotometer UV-2400PC). The method, then: In consideration of film thickness, the molar absorption coefficient of the specific metal complex compounds-1, -2, -3 and -4 of the invention is preferably as high as possible, and 60,000 or higher is preferable. The maximum absorption wavelength (λmax) thereof is preferably from 520 nm to 580 nm, and more preferably from 530 nm to 570 nm, in order to improve color purity. The maximum absorption wavelength and the molar absorption coefficient are determined by using a spectrophotometer UV-2400PC (manufactured by Shimadzu Corporation).
The molar absorption coefficient (ε) of each of the obtained compounds was measured in an ethyl acetate solution using a spectrophotometer (trade name: UV-2400PC; manufactured by Shimadzu Corporation). The absorbance (Abs) at 450 nm was evaluated by normalizing the absorbance at a maximum absorption wavelength (λmax) to 1.0. […] The measurement results of the absorbance (Abs value), maximum absorption wavelength (λmax), and molar absorption coefficient (ε) are shown in Table 1.
By the method similar to the reaction scheme in Synthesis Example 1 above, the exemplary compounds (dipyrromethene metal complex compounds or tautomers thereof) shown in Table 1 were synthesized. The identification of the compounds and the measurement of the maximum absorption wavelength (λmax) and the molar absorption coefficient (ε) of the compounds were performed similarly to Synthesis Example 1 above.

A short description of data set [2]: Transmittance at 450 nm of the color filter. Particulars: negative-working colored resist, 1.0 μm film; transmittance at λmax normalized to 2%. As for the experimental part:
The colored resist solution obtained in section 3 above was applied to an undercoat layer side of the glass substrate having an undercoat layer obtained in section 2 above by a spin coater such that a film thickness was 1.0 μm. Subsequently, the film was pre-baked at 100° C. for 120 sec, whereby a monochromatic color filter was obtained.
The transmission spectrum of the color filter obtained above was measured, and the transmittance at 450 nm was evaluated according to the following criteria. The transmittance of the color filter at 450 nm was evaluated by correcting (normalizing) the transmittance at the maximum absorption wavelength of the colorant included in the color filter to 2%. A larger transmittance indicates greater transmission of blue light, which indicates favorable magenta or violet color that can be used in a blue filter.
A: Transmittance at 450 nm was 90% or more
B: Transmittance at 450 nm was 80% or more but not more than 90%
C: Transmittance at 450 nm was not more than 80%

The nature of data set [3]: Storage stability of colored resist solution (precipitation after one month at room temperature). More on the design: key: A: No precipitation was observed; B: Slight precipitation was observed; C: Precipitation was observed. Particulars: negative-working colored resist solution, visual precipitation. The text has this: 9.4 g of the resist solution obtained in section 1 above and 0.35 g of the exemplary compound Ia-12 synthesized above (a compound represented by Formula (4): dipyrromethene complex compound) were mixed and dissolved, whereby a colored resist solution (a negative-working ultraviolet-sensitive colored curable composition) was obtained.
The colored resist solution was stored for one month at room temperature, and then degree of precipitation was visually observed. The storage stability was evaluated according to the following criteria.
A: No precipitation was observed
B: Slight precipitation was observed
C: Precipitation was observed

Data set [4] in a line: Light-fastness of coating film (color difference ΔEab before and after xenon lamp irradiation). To be noted: xenon lamp 20,000 luxes for 10 hours (200,000 lux·h). As for the experimental part: A glass substrate having undercoat layer formed by applying the colored resin composition obtained in section 3 above was irradiated with a xenon lamp at an intensity of 20,000 luxes for 10 hours (equivalent to 200,000 lux·h), and the color difference ΔEab between before and after the irradiation was determined. The light-fastness was evaluated according to the following criteria. A smaller ΔEab value indicates better light-fastness.
(§1) A: ΔEab value was less than 6
(§2) B: ΔEab value was from 6 to 10
(§3) C: ΔEab value was more than 10

Data set [5] is described as follows: Heat resistance of coating film (color difference ΔEab before and after heating). To be noted: 100° C. for 1 hour on hot plate. As for the experimental part:
A glass substrate having undercoat layer formed by applying the colored resin composition obtained in section 3 above was heat-treated at 100° C. for 1 hour using a hot plate, and the color difference (ΔEab) between before and after the heating was determined by using a […] MCPD-1000 (trade name, manufactured by Otsuka Electronics Co., Ltd.). The heat resistance was evaluated according to the following criteria. A smaller AEab value indicates better heat resistance.
as §1, §2, §3

Take `CC1CC(C(C)(C)C)C(OC(=O)C2=C(c3ccccc3)C3=Cc4c(-c5ccccc5)c(C(=O)OC5C(C(C)(C)C)CC(C)CC5C(C)(C)C)c(NC(=O)c5ccc(F)c(F)c5)[n]4[Zn-]([OH])[N+]3=C2NC(=O)c2ccc(F)c(F)c2)C(C(C)(C)C)C1` (stereo not shown) [IIb-13]: in data set [1], the “maximum absorption wavelength (λmax)” value stood at 560 nm, the “molar absorption coefficient (ε)” value is 106,300 and the “Abs value at 450 nm when normalized to Abs = 1.0 at λmax” value (“Abs value at 450 nm when normalized” for short) was found to be 0.0107. Further, in data set [2], the “Transmittance at 450 nm” value is “A (Transmittance at 450 nm was 90% or more)”. For the same molecule, the Storage stability entry in data set [3] is recorded as “A”. For the same molecule, in data set [4], the Light-fastness entry is “A (ΔEab value was less than 6)”. Also, the Heat resistance result in data set [5] was “A (ΔEab value was less than 6)”.
As for `CC1CC(C(C)(C)C)C(OC(=O)C2=C(c3ccccc3)C3=Cc4c(-c5ccccc5)c(C(=O)OC5C(C(C)(C)C)CC(C)CC5C(C)(C)C)c(NC(=O)c5cc(C(F)(F)F)cc(C(F)(F)F)c5)[n]4[Zn-]([OH])[N+]3=C2NC(=O)c2cc(C(F)(F)F)cc(C(F)(F)F)c2)C(C(C)(C)C)C1` (stereo not shown) [IIb-14], in data set [1], the “maximum absorption wavelength (λmax)” value was 560 nm, the “molar absorption coefficient (ε)” value is reported as 117,400 and the “Abs value at 450 nm when normalized” value worked out at 0.01. In addition, the “Transmittance at 450 nm” value in data set [2] is reported as “A (Transmittance at 450 nm was 90% or more)”. Besides, the Storage stability entry in data set [3] is on record as “A”. The Light-fastness entry in data set [4] is “A (ΔEab value was less than 6)”. In data set [5], the Heat resistance entry is “A (ΔEab value was less than 6)”.
With `CC1CC(C(C)(C)C)C(OC(=O)C2=C(c3ccccc3)C3=Cc4c(-c5ccccc5)c(C(=O)OC5C(C(C)(C)C)CC(C)CC5C(C)(C)C)c(NC(=O)c5cc(F)ccc5NS(C)(=O)=O)[n]4[Zn-]([OH])[N+]3=C2NC(=O)c2cc(F)ccc2NS(C)(=O)=O)C(C(C)(C)C)C1` (stereo not shown) [IIb-20], in data set [1], the “maximum absorption wavelength (λmax)” value is 565 nm, the “molar absorption coefficient (ε)” value was 121,000 and the “Abs value at 450 nm when normalized” value was 0.082. Besides, in data set [2], the “Transmittance at 450 nm” value is listed as “A (Transmittance at 450 nm was 90% or more)”. In data set [3], the Storage stability result is “A”. The Light-fastness result in data set [4] is on record as “A (ΔEab value was less than 6)”. Moreover, the Heat resistance result in data set [5] is “A (ΔEab value was less than 6)”.
`CC1CC(C(C)(C)C)C(OC(=O)C2=C(c3ccccc3)C3=Cc4c(-c5ccccc5)c(C(=O)OC5C(C(C)(C)C)CC(C)CC5C(C)(C)C)c(NC(=O)c5ccc(F)c(Br)c5)[n]4[Zn-]([OH])[N+]3=C2NC(=O)c2ccc(F)c(Br)c2)C(C(C)(C)C)C1` (stereo not shown) [IIb-24]: in data set [1], the “maximum absorption wavelength (λmax)” value was 564 nm, the “molar absorption coefficient (ε)” value is reported as 100,900 and the “Abs value at 450 nm when normalized” value came to 0.091. For the same molecule, the “Transmittance at 450 nm” value in data set [2] was “A (Transmittance at 450 nm was 90% or more)”. Also, the Storage stability entry in data set [3] is listed as “B”. In data set [4], the Light-fastness entry is listed as “A (ΔEab value was less than 6)”. Also, the Heat resistance result in data set [5] was “A (ΔEab value was less than 6)”.
Take `CC1CC(C(C)(C)C)C(OC(=O)C2=C(c3ccccc3)C3=Cc4c(-c5ccccc5)c(C(=O)OC5C(C(C)(C)C)CC(C)CC5C(C)(C)C)c(NC(=O)c5cc(F)c(F)c(F)c5)[n]4[Zn-]([OH])[N+]3=C2NC(=O)c2cc(F)c(F)c(F)c2)C(C(C)(C)C)C1` (stereo not shown) [IIb-32]: in data set [1], the “maximum absorption wavelength (λmax)” value is reported as 559 nm, the “molar absorption coefficient (ε)” value is 91,400 and the “Abs value at 450 nm when normalized” value is recorded as 0.0143. Besides, in data set [2], the “Transmittance at 450 nm” value was “A (Transmittance at 450 nm was 90% or more)”. Further, the Storage stability result in data set [3] is listed as “A”. Moreover, in data set [4], the Light-fastness result was “A (ΔEab value was less than 6)”. Moreover, in data set [5], the Heat resistance entry is recorded as “A (ΔEab value was less than 6)”.
For `CC1CC(C(C)(C)C)C(OC(=O)C2=C(c3ccccc3)C3=Cc4c(-c5ccccc5)c(C(=O)OC5C(C(C)(C)C)CC(C)CC5C(C)(C)C)c(NC(=O)c5c(F)c(F)c(C(=O)O)c(F)c5F)[n]4[Zn-]([OH])[N+]3=C2NC(=O)c2c(F)c(F)c(C(=O)O)c(F)c2F)C(C(C)(C)C)C1` (stereo not shown) [IIb-38], in data set [1], the “maximum absorption wavelength (λmax)” value is reported as 561 nm, the “molar absorption coefficient (ε)” value was 105,900 and the “Abs value at 450 nm when normalized” value came out at 0.0099. For the same molecule, the “Transmittance at 450 nm” value in data set [2] is “A (Transmittance at 450 nm was 90% or more)”. For the same molecule, in data set [3], the Storage stability entry is listed as “A”. The Light-fastness result in data set [4] is listed as “A (ΔEab value was less than 6)”. Also, the Heat resistance entry in data set [5] is reported as “A (ΔEab value was less than 6)”.
On to `CC1CC(C(C)(C)C)C(OC(=O)C2=C(c3ccccc3)C3=Cc4c(-c5ccccc5)c(C(=O)OC5C(C(C)(C)C)CC(C)CC5C(C)(C)C)c(NC(=O)c5c(F)c(F)c(F)c(F)c5F)[n]4[Zn-]([OH])[N+]3=C2NC(=O)c2c(F)c(F)c(F)c(F)c2F)C(C(C)(C)C)C1` (stereo not shown) [IIb-40], for which, in data set [1], the “maximum absorption wavelength (λmax)” value was determined as 562 nm, the “molar absorption coefficient (ε)” value is on record as 107,300 and the “Abs value at 450 nm when normalized” value is given as 0.0087. Also, the “Transmittance at 450 nm” value in data set [2] is listed as “A (Transmittance at 450 nm was 90% or more)”. The Storage stability entry in data set [3] is reported as “A”. The Light-fastness entry in data set [4] was “A (ΔEab value was less than 6)”. Moreover, the Heat resistance result in data set [5] is reported as “A (ΔEab value was less than 6)”.
For `Cc1c(C(=O)OC2C(C(C)(C)C)CC(C)CC2C(C)(C)C)c(NC(=O)c2ccccc2C(F)(F)F)[n]2c1C=C1C(c3ccccc3)=C(C#N)C(NC(=O)C(C)Sc3cc(C(=O)O)cc(C(=O)O)c3)=[N+]1[Zn-]2[OH]` (stereo not shown) [Ia-12], in data set [1], the “maximum absorption wavelength (λmax)” value worked out at 560 nm, the “molar absorption coefficient (ε)” value was 81,400 and the “Abs value at 450 nm when normalized” value was found to be 0.0154. Further, the “Transmittance at 450 nm” value in data set [2] is listed as “A (Transmittance at 450 nm was 90% or more)”. Besides, the Storage stability entry in data set [3] is “A”. Moreover, the Light-fastness entry in data set [4] is recorded as “A (ΔEab value was less than 6)”. In addition, in data set [5], the Heat resistance result is given as “A (ΔEab value was less than 6)”.
`Cc1c(C(=O)OC2C(C(C)(C)C)CC(C)CC2C(C)(C)C)c(NC(=O)c2cccc(C(F)(F)F)c2)[n]([Zn][OH])c1C=C1N=C(NC(=O)C(C)(C)C)C(C#N)=C1c1ccccc1` (stereo not shown) [Ia-14]: in data set [1], the “maximum absorption wavelength (λmax)” value amounted to 560 nm, the “molar absorption coefficient (ε)” value is on record as 87,600 and the “Abs value at 450 nm when normalized” value is 0.0112. Further, in data set [2], the “Transmittance at 450 nm” value was “A (Transmittance at 450 nm was 90% or more)”. For the same molecule, in data set [3], the Storage stability entry is “A”. Besides, in data set [4], the Light-fastness entry is given as “A (ΔEab value was less than 6)”. Also, the Heat resistance result in data set [5] was “A (ΔEab value was less than 6)”.
As for `Cc1c(C(=O)OC2C(C(C)(C)C)CC(C)CC2C(C)(C)C)c(NC(=O)c2cccc(C(F)(F)F)c2)[n]2c1C=C1C(c3ccccc3)=C(C#N)C(NC(=O)C(C)Sc3cc(C(=O)O)cc(C(=O)O)c3)=[N+]1[Zn-]2[OH]` (stereo not shown) [Ia-15], in data set [1], the “maximum absorption wavelength (λmax)” value came to 558 nm, the “molar absorption coefficient (ε)” value was 91,000 and the “Abs value at 450 nm when normalized” value came out at 0.091. In addition, the “Transmittance at 450 nm” value in data set [2] was “A (Transmittance at 450 nm was 90% or more)”. For the same molecule, in data set [3], the Storage stability entry is listed as “A”. Besides, the Light-fastness entry in data set [4] was “A (ΔEab value was less than 6)”. Further, the Heat resistance entry in data set [5] is reported as “A (ΔEab value was less than 6)”.

The record behind these values is US8343696B2, “Colored curable composition, fluorine-containing dipyrromethene compound and tautomer thereof, and fluorine-containing dipyrromethene metal complex and tautomer thereof, and color filter using the same and method for producing the color filter” (FUJIFILM Corporation, priority 2008, dated 2013).
